In US20070099917A1, “Novel inhibitors and methods for their preparation” (THE WALTER AND ELIZA HALL INSTITUTE OF MEDICAL RESEARCH, priority 2005, published 2007):

Assay: Hydrolysis of FMS derivative in mouse plasma
Type: in vitro ADME
Settings: 100 μM in mouse plasma at 37° C., after 28 hours, RP-HPLC
Description: Mouse plasma was incubated with 100 μM FMS-6-amino-4-(3-chlorophenylamino)quinazoline at 37° C. Samples were taken and analysed on RP-HPLC as described above in Example 1b) ii). The relative amounts of the two peaks were calculated. Chromatograms of samples taken at 0 (see FIG. 5), 5 (see FIG. 6) and 22 (see FIG. 7) hours show the relative change in the amount of the two compounds (i.e. FMS-6-amino-4-(3-chlorophenylamino)quinazoline vs 6-amino-4-(3-chlorophenylamino)quinazoline) in the plasma after incubation at 37° C.

Hydrolysis to 6-amino-4-(3-chlorophenylamino)quinazoline in mouse plasma: almost completely hydrolysed
Compound: O=C(Nc1ccc2ncnc(Nc3cccc(Cl)c3)c2c1)OCC1c2ccccc2-c2ccc(S(=O)(=O)O)cc21 (stereo not shown) [FMS-6-amino-4-(3-chlorophenylamino)quinazoline]
